Assay results taken from patent publication US20250134875A1, “FORMULATIONS OF ALK-5 KINASE INHIBITORS AND USES THEREOF” (Thirona Bio, Inc., priority 2023, published 2025).

What was measured:
[1] = Excipient compatibility / stability study (HPLC, 2 weeks); assay type: physicochemical; details: for Loss of Compound 1 on storage / Stability conclusion: 2 weeks; for Stability conclusion: RT, 40 and 50° C.
Procedure: Stability studies were conducted to evaluate compatibility and stability of Compound 1 with some of the excipients included in the solubility experiments. The stability was assessed using the validated API HPLC method after storage at room temperature (RT), 40° C. and 50° C. for 2 weeks. The summary of the data generated from these experiments is provided below in Table 6 below.

[2] = test system: surgical incision-induced dermal fibrosis; assay: Surgical incision-induced dermal fibrosis model: clinical signs, visual assessment, histology; assay type: in vivo, Göttingen minipig
Procedure: (§1) . Therefore, a model of surgical incision-induced dermal fibrosis was established in minipigs and the effects of topical Compound 1 were evaluated by visual assessment, histologic examination and gene expression by RNA sequencing.
The study was conducted in 4 female Göttingen SPF minipigs. On Day 1, eight full thickness incisional wounds, four on each side, were performed on each animal. […]. All animals received a dose volume of 160 μl per wound ([…] applied to a 32 cm2 area surrounding each incision). Clinical signs, visual observations of incisions, body weight and food consumption were recorded during the in-life period. At necropsy (Day 21) two biopsies were collected from each incision for histopathology and gene expression analysis.
For histopathology, a 0.8 cm punch biopsy was collected from the incisional wounds. The biopsies were divided into two, diagonal to the incisional wound. All biopsies were individually fixed in phosphate buffered neutral 4% formaldehyde. Following fixation, all incisional wound biopsies collected for microscopic examination were trimmed and processed. The specimens were embedded in paraffin and cut at a nominal thickness of approximately […], stained with haematoxylin and eosin, and examined by light microscopy.

[3] = test system: profibrotic genes; assay: Gene expression (RNA sequencing) in surgical incision-induced dermal fibrosis model; assay type: in vivo, Göttingen minipig
Procedure: as §1, with “Minipig skin is more similar to human skin than rodent skin, and dermal delivery of topical ALK-5 kinase inhibitor Compound 1 in minipigs is expected to be reflective of treatment of human skin. Therefore,” for “. Therefore,”
The study was conducted in 4 female Göttingen SPF minipigs. On Day 1, eight full thickness incisional wounds, four on each side, were performed on each animal. Compound 1 0% (Vehicle), 0.1%, 0.3% or 1% was applied topically twice daily for 14 days from Day 7 through Day 20 on each incision. All animals received a dose volume of 160 μl per wound ([…] applied to a 32 cm2 area surrounding each incision). Clinical signs, visual observations of incisions, body weight and food consumption were recorded during the in-life period. At necropsy (Day 21) two biopsies were collected from each incision for histopathology and gene expression analysis.
For gene expression analysis, a 0.3 cm punch biopsy was collected from the incisional wounds. Samples were collected and stored overnight in prefilled tubes containing RNAlater at 5±3° C., and then transferred to a freezer and stored at ˜−20° C. The biopsies collected were then thawed and subjected to RNA purification and then generation of mRNA-enriched cDNA libraries for Illumina sequencing. RNA sequencing was performed to a depth of ˜15 million reads followed by bioinformatic analysis, including differential gene expression analysis.

[4] = Stability studies (storage and forced degradation); assay type: physicochemical
Procedure: The physical solubility of the formulation is an important factor in the development of the formulation.
The active ingredient, Compound 1, is very stable, and has known stability of greater than 5 years.
The stability studies were also conducted by storing the samples under the conditions of accelerated degradation (40° C./75% RH). The stress conditions and the resulting stability of the formulation is provided below.

[5] = Solubility assessment in solvent and excipient systems (formulated systems); assay type: physicochemical; details: 25° C.
From the text: Table 5 provides the solubility of Compound 1 in various solvents and excipient systems to analyze the topical systems to be utilized with the formulations.

[6] = topical 0.1%, 0.3% or 1% twice daily Day 7-20, biopsy Day 21

- Loss of Compound 1 on storage ([1]; Benzyl Alcohol +0.1% BHT, 40° C.): No Loss
- Loss of Compound 1 on storage ([1]; Benzyl Alcohol +0.1% BHT, 50° C.): No Loss
- Loss of Compound 1 on storage ([1]; Benzyl Alcohol +0.1% BHT, RT storage): No Loss
- Stability conclusion ([1]; Benzyl Alcohol +0.1% BHT): STABLE AT ALL
- Loss of Compound 1 on storage ([1]; Benzyl Alcohol, 40° C.): No Loss
- Loss of Compound 1 on storage ([1]; Benzyl Alcohol, 50° C.): No Loss
- Loss of Compound 1 on storage ([1]; Benzyl Alcohol, RT storage): No Loss
- Stability conclusion ([1]; Benzyl Alcohol): STABLE AT ALL
- Loss of Compound 1 on storage ([1]; Diethyl Sebacate, 40° C.): 3-4% loss
- Loss of Compound 1 on storage ([1]; Diethyl Sebacate, 50° C.): 6% loss
- Loss of Compound 1 on storage ([1]; Diethyl Sebacate, RT storage): No Loss
- Stability conclusion ([1]; Diethyl Sebacate): Some Instability
- Loss of Compound 1 on storage ([1]; PEG 400 + 0.1% BHT, 40° C.): No Loss
- Loss of Compound 1 on storage ([1]; PEG 400 + 0.1% BHT, 50° C.): No Loss
- Loss of Compound 1 on storage ([1]; PEG 400 + 0.1% BHT, RT storage): No Loss
- Loss of Compound 1 on storage ([1]; PEG 400, 40° C.): 10% loss
- Loss of Compound 1 on storage ([1]; PEG 400, 50° C.): ~28% loss
- Loss of Compound 1 on storage ([1]; PEG 400, RT storage): No Loss
- Stability conclusion ([1]; PEG 400): Unstable at > RT
- Loss of Compound 1 on storage ([1]; Phenoxyethanol +0.1% BHT, 40° C.): No Loss
- Loss of Compound 1 on storage ([1]; Phenoxyethanol +0.1% BHT, 50° C.): No Loss
- Loss of Compound 1 on storage ([1]; Phenoxyethanol +0.1% BHT, RT storage): No Loss
- Stability conclusion ([1]; Phenoxyethanol +0.1% BHT): STABLE AT ALL
- Loss of Compound 1 on storage ([1]; Phenoxyethanol, 40° C.): No Loss
- Loss of Compound 1 on storage ([1]; Phenoxyethanol, 50° C.): No Loss
- Loss of Compound 1 on storage ([1]; Phenoxyethanol, RT storage): No Loss
- Stability conclusion ([1]; Phenoxyethanol): STABLE AT ALL
- Loss of Compound 1 on storage ([1]; Propylene Glycol, 40° C.): No Loss
- Loss of Compound 1 on storage ([1]; Propylene Glycol, 50° C.): No Loss
- Loss of Compound 1 on storage ([1]; Propylene Glycol, RT storage): No Loss
- Stability conclusion ([1]; Propylene Glycol): STABLE AT ALL
- Loss of Compound 1 on storage ([1]; Transcutol (DEGEE) +0.1% BHT, 40° C.): No Loss
- Loss of Compound 1 on storage ([1]; Transcutol (DEGEE) +0.1% BHT, 50° C.): No Loss
- Loss of Compound 1 on storage ([1]; Transcutol (DEGEE) +0.1% BHT, RT storage): No Loss
- Stability conclusion ([1]; Transcutol (DEGEE) +0.1% BHT): STABLE AT ALL
- Loss of Compound 1 on storage ([1]; Transcutol (DEGEE), 40° C.): No Loss
- Loss of Compound 1 on storage ([1]; Transcutol (DEGEE), 50° C.): No Loss
- Loss of Compound 1 on storage ([1]; Transcutol (DEGEE), RT storage): No Loss
- Stability conclusion ([1]; Transcutol (DEGEE)): STABLE AT ALL
- Loss of Compound 1 on storage ([1]; pH 3 Citrate buffer, 40° C.): No Loss
- Loss of Compound 1 on storage ([1]; pH 3 Citrate buffer, 50° C.): No Loss
- Loss of Compound 1 on storage ([1]; pH 3 Citrate buffer, RT storage): No Loss
- Stability conclusion ([1]; pH 3 Citrate buffer): STABLE AT ALL
- Loss of Compound 1 on storage ([1]; pH4 Citrate buffer, 40° C.): No Loss
- Loss of Compound 1 on storage ([1]; pH4 Citrate buffer, 50° C.): No Loss
- Loss of Compound 1 on storage ([1]; pH4 Citrate buffer, RT storage): No Loss
- Stability conclusion ([1]; pH4 Citrate buffer): STABLE AT ALL
- Loss of Compound 1 on storage ([1]; pH5 Citrate buffer, 40° C.): No Loss
- Loss of Compound 1 on storage ([1]; pH5 Citrate buffer, 50° C.): No Loss
- Loss of Compound 1 on storage ([1]; pH5 Citrate buffer, RT storage): No Loss
- Stability conclusion ([1]; pH5 Citrate buffer): STABLE AT ALL
- Wound healing (histology: new collagen, re-epithelialisation) ([2]; Day 21): wound healing was not compromised
- Known stability of the active ingredient [4]: greater than 5 years
- Max solubility of Compound 1 ([5]; Aqueous Gels, aqueous component 10-30% w/w): 1-2.7%/w
- Max solubility of Compound 1 ([5]; Creams & Lotions, aqueous component 30-40% w/w): 1-1.5%/w
- Max solubility of Compound 1 ([5]; Non-Aqueous Gels & Film forming solutions, aqueous component 0.0% w/w): 3-3.5%/w
SMILES: Cc1cccc(-n2ncc(C)c2-c2cc3cnccc3s2)n1 [Compound 1]
- Stability of Compound 1 with excipients (summary) ([1]; solubility and compatibility experiments): relatively stable except with PEG400 and Diethyl Sebacate
- Adverse clinical signs ([2]; in-life period, topical 0.1%, 0.3% or 1% twice daily for 14 days): No adverse clinical signs
- Fibrosis (gene expression and histology data) ([2]; topical administration): inhibits fibrosis
- Gene expression of the profibrotic genes investigated ([3]; FIG. 7): consistent tendency to dose-dependently reduce gene expression
- Change in gene expression, ADAM12 [3, 6]: −52%
- Change in gene expression, ADAMTS14 [3, 6]: −52%
- Change in gene expression, BMP1 [3, 6]: −47%
- Change in gene expression, COL1A1 [3, 6]: −49%
- Change in gene expression, COL1A2 [3, 6]: −48%
- Change in gene expression, COL3A1 [3, 6]: −49%
- Change in gene expression, MMP2 [3, 6]: −52%
- Change in gene expression, MMP9 [3, 6]: −54%
- Change in gene expression, MMP14 [3, 6]: −42%
- Change in gene expression, TGF-β1 [3, 6]: up to −23%
- Change in gene expression, TGF-β2 [3, 6]: ≤ −32%
- Change in gene expression, TGF-β3 [3, 6]: ≤ −49%
- Change in gene expression, THBS4 [3, 6]: −67%
- Change in gene expression, TIMP1 [3, 6]: −17%
- Change in gene expression, TIMP2 [3, 6]: −46%
